This test addresses T1, aromatase (Homo sapiens, UniProt P11511).
T1 construct: aromatase preparation, usually 50-800 »g of microsomal protein per ml of assay buffer; from tissue; host or cells: microsomes
T1 sequence (P11511 1-503): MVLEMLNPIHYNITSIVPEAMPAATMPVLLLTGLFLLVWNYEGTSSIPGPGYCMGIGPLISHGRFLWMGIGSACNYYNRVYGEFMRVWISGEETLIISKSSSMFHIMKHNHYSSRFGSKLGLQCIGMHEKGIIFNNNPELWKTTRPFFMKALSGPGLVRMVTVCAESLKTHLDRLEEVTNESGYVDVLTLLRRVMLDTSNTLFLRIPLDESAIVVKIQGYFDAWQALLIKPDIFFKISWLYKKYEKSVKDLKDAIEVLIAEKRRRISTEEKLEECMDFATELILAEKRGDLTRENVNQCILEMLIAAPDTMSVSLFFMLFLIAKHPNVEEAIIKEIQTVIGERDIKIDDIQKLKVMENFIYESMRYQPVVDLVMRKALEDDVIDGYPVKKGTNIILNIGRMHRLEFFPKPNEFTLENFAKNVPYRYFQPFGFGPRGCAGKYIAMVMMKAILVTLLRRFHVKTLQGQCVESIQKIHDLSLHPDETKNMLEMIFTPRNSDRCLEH
As to the kind of experiment: time-dependent aromatase inhibition assay (preincubation of inhibitor with enzyme, Kitz-Wilson analysis). The format is biochemical. The conditions noted are these: for τ50: half-time of inactivation at infinite inhibitor concentration, Kitz-Wilson plots, time-dependent assay; for kinact/KI: ratio of kcat/Ki (inactivation), index of efficiency of enzyme inactivation. The method, then:
In this assay, the inhibitor is preincubated with enzyme prior to assaying for activity in the presence of high substrate levels. A time-related decrease in enzyme activity can be indicative of irreversible binding of the inhibitor with the enzyme.
In the time-dependent assay, an amount of the enzyme inhibitor in 100 »l of the assay buffer described above which will provide assay concentrations which are usually between 1 nM and 10 »M are added to 35 ml centrifuge tubes containing 600 »l of the NADPH generating system. The pre-incubation is started by the addition of 700 »l of aromatase preparation, usually 50-800 »g of microsomal protein per ml of assay buffer. These preparations are mixed using a vortex mixer and incubated for 0, 5, 10, or 20 minutes at 25°C. Then 100 »l of androstenedione (∼6.8 »M) containing 1β-³H androstenedione in assay buffer is added to provide an assay concentration of substrate (0.50 »M) which is at least ten times the Km of androstenedione (0.04 »M). Following vortexing, the enzyme incubation is continued for 10 minutes before being terminated by the addition of chloroform. The amount of radioactivity in the aqueous fraction is determined by scintillation procedures. The enzymatic activity for each concentration of inhibitor at each time period of preincubation is calculated as a percent of the respective vehicle control which is arbitrarily set at 100%. Therefore, the relative present enzyme inhibition is expressed as a percentage: (100 percent minus percent enzyme activity with inhibitor present).
Enzyme kinetic analysis utilized Kitz-Wilson plots for time-dependent assays. These analyses provide estimates of apparent Ki of inactivation which represents the inhibitor concentration required to produce half-maximal rate of enzyme inactivation. The pseudo first-order rate constant for enzyme inactivation (kcat) and the half-time of inactivation (τ₅₀) of infinite inhibitor concentrations were determined.

For `C[C@]12CC[C@H]3[C@@H](CCC4=CC(=O)CC[C@@]43C(O)CBr)[C@@H]1CCC2=O` (single isomer, unassigned; diastereomer 10) [HOCHCH₂Br pure (R) diastereomer, 10-(2-Bromo-1-hydroxyethyl)-estr-4-ene-3,17-dione], the Ki was found to be 26 nM and the τ50 is on record as 4.85 min.
Turning to `C[C@]12CC[C@H]3[C@@H](CCC4=CC(=O)CC[C@@]43C(O)CBr)[C@@H]1CCC2=O` (stereo partly drawn) [HOCHCH₂Br (S):(R)::9:1, 10-(2-Bromo-1-hydroxyethyl)-estr-4-ene-3,17-dione], the Ki came out at 1130 nM and the τ50 came out at 5.33 min.
For `C[C@]12CC[C@H]3[C@@H](CCC4=CC(=O)CC[C@@]43C(O)CCl)[C@@H]1CCC2=O` (stereo partly drawn) [HOCHCH₂Cl (R):(S)::9:1, 10-(2-Chloro-1-hydroxyethyl)-estr-4-ene-3,17-dione], the Ki came out at 63 nM, the τ50 was determined as 3.60 min and the kinact/KI came out at 50700 M⁻¹ s⁻¹.
For `C[C@]12CC[C@H]3[C@@H](CCC4=CC(=O)CC[C@@]43C(O)CI)[C@@H]1CCC2=O` (stereo partly drawn) [HOCHCH₂I (R):(S)::9:1, 10-(2-Iodo-1-hydroxyethyl)-estr-4-ene-3,17-dione], the Ki stood at 11 nM, the τ50 turned out to be 2.22 min and the kinact/KI was 490000 M⁻¹ s⁻¹.
With `C[C@]12CC[C@H]3[C@@H](CCC4=CC(=O)CC[C@@]43C(=O)CBr)[C@@H]1CCC2=O` [O=CCH₂Br, 10-(2-Bromoacetyl)-estr-4-ene-3,17-dione], the Ki is 190 nM, the τ50 amounted to 32.7 min and the kinact/KI came to 1860 M⁻¹ s⁻¹.

As a reminder, the kinact/KI is the maximal inactivation rate divided by the concentration that gives half of it.

The values above are taken from patent EP0450515B1, “Haloethyl-substituted steroidal enzyme inhibitors” (MERRELL DOW PHARMACEUTICALS INC., priority 1990, dated 1991).
